The values that follow come from US20090270452A1, “USE OF SOLUBLE EPOXIDE HYDROLASE INHIBITORS IN THE TREATMENT OF SMOOTH MUSCLE DISORDERS” (Arete Therapeutics, Inc., priority 2008, published 2009).

Experiment [1] relates to rat mesenteric arteries. Put plainly: Vasorelaxation of rat mesenteric arteries pre-contracted with U46619 or high KCl (myograph). The format is cell-based. The protocol: Additional experiments were performed wherein the pre-contraction of the mesenteric arteries was induced by pre-incubation with either 0.1-1.0 μM U46619 (9,11-dideoxy-9α,11α-methanoepoxy Prostaglandin F2α, […]). The pre-contracted arteries were exposed to 2 μM, 10 μM, 50 μM, 100 μM, 500 μM or 1000 μM of Compound 2 and the level of relaxation was measured by myograph. […] The amount of relaxation induced by Compound 2 was consistent between the vessels pre-contracted by U46619 and high KCl.

Experiment [2] deals with rabbit corpus cavernosum smooth muscle strips. In words: Relaxation of isolated rabbit corpus cavernosum smooth muscle strips (pressure transducer). To be noted: 10 minutes. The format is cell-based. The protocol:
A study was performed using freshly isolated rabbit corpus cavernosum smooth muscle strips attached to a pressure transducer in a temperature controlled bath, to evaluate the efficacy of 1-adamantyl-3-(1-(methylsulfonyl)piperidin-4-yl)urea (Compound 1) for the treatment of erectile dysfunction.
The isolated rabbit corpus cavernosum strips were exposed to Compound 1 and/or 14,15-epoxyeicosatrienoic acid (14,15-EET) at 1 μM or 10 μM concentrations for 10 minutes. The relaxation of each strip was measured by pressure transduction. The percent relaxation was determined relative to a control strip incubated with sodium nitroprusside (SNP) of the formula Na2[Fe(CN)5NO].2H2O, SNP is a compound that serves as a source of nitric oxide, a potent peripheral vasodilator. All experimental conditions were done in duplicate.

Experiment [3] concerns rat corpus cavernosual strips. To be noted: cited from earlier work; for phenylephrine (PE) induced contraction of the cavernosual strips: preincubation with the inhibitor.
The test system of experiment [4] is rat arteries. Put plainly: Ach-induced relaxation of arteries from angiotensin II rats co-treated in vivo (myograph). The following applies: ANG II rats. The protocol: Additionally, in vivo attenuation of the effects of ANG II by Compound 2 or Compound 3 was examined. Rats were administered ANG II for 2 weeks and co-administered ANG II and either 10 mg of Compound 2 once a day by oral gavage or 30 mg of Compound 3 per day dose in drinking water for 2 weeks. Ach induced relaxation was measured by myograph.

The subject of experiment [5] is rat mesenteric arteries. In words: Direct vasorelaxation of rat mesenteric arteries with intact or denuded endothelium (wired myograph). The format is cell-based. As to the method:
The efficacy of the 1-(1-nicotinoylpiperidin-4-yl)-3-(4-(trifluoromethoxy)phenyl)urea (Compound 2) to directly effect vasorelaxation of rat mesenteric arteries was examined. Rat mesenteric arteries with intact and denuded endothelium were isolated under microscope. Both intact and denuded arteries were exposed to various concentrations of Compound 2 (2 μM, 10 μM, 50 μM, 100 μM, 500 μM or 1000 μM) and the amount of relaxation was measured by a wired myograph.

Experiment [6] deals with rat arteries. In words: Ach-induced relaxation of isolated arteries from angiotensin II infused rats after in vitro pre-incubation (myograph). The following applies: arteries of ANG II infused rats, pre-incubation with 100 μM compound for 90 minutes; 2% without compound. The experiment is classed as cell-based. As to the method:
The efficacy of 1-(1-nicotinoylpiperidin-4-yl)-3-(4-(trifluoromethoxy)phenyl)urea (Compound 2) and 1-adamantyl-3-(1-acetylpiperidin-4-yl)urea (Compound 3) to effect vasorelaxation of rat arteries in vitro and in vivo was examined. Rats were infused with angiotensin II (ANG II) for 4 weeks resulting in a reduced vasorelaxation response to acetylcholine (Ach), a neurotransmitter known to cause endothelium-dependent vasodilation of arteries. Ach-induced relaxation was measured by myograph.

Another experiment relates to arteries from SHR. In words: Aortic relaxation of isolated arteries from spontaneously hypertensive rats (SHR) to Ach or SNP after pre-incubation (myograph). The experiment is classed as cell-based, rat. The following applies: pre-incubation with 100 μM compound for 90 minutes.

In the case of `CCCCCC1OC1CC=CCC=CCC=CCCCC(=O)O` (stereo not shown) [14,15-EET, 14,15-epoxyeicosatrienoic acid, reference compound], in the experiment on rat mesenteric arteries [1] (pre-contracted with high KCl (100 mM per FIG. 3A)), the “EET-induced vasorelaxation in vessels precontracted with high KCl” value was “completely blocked”. The “relaxation of corpus cavernosum strip” value in experiment [2] (14,15-EET alone, 1 μM) is on record as “no effect”; in experiment [2] (14,15-EET alone, 10 μM, in one of the two experiments), 7%.

On to `CS(=O)(=O)N1CCC(NC(=O)NC23CC4CC(CC(C4)C2)C3)CC1` [Compound 1, 1-adamantyl-3-(1-(methylsulfonyl)piperidin-4-yl)urea], for which the “percent relaxation of corpus cavernosum strip” value in experiment [2] (1 μM of both Compound 1 and 14,15-EET, relative to SNP control strip) is listed as 15%; in experiment [2] (10 μM of both Compound 1 and 14,15-EET, relative to SNP control strip) it was 22%. In experiment [2] (Compound 1 alone, 1 μM or 10 μM, relative to SNP control strip), the “relaxation of corpus cavernosum strip” value was “did not induce relaxation”.

Take epoxyeicosatrienoic acids [EETs]: the EC50 – broadly, the concentration at which the effect is half-maximal – in experiment [3] (normal, old and diabetic rat corpus cavernosual strips, read-out: apparent EC50 of relaxation) was 10 nM. Besides, the Emax of relaxation in experiment [3] (normal, old and diabetic rat strips, depending on the system) was 30-70%.

For the compound `CCCCc1ccc(N=CN)c(C)c1` [N′-(4-dutyl-2-methyl-phenyl)-foramidine], the “phenylephrine (PE) induced contraction of the cavernosual strips” value in experiment [3] is recorded as “attenuated”.

On to `CCCCCCCCCCCCNC(=O)NC1CCCCC1` [1-cyclodexy-3-dodecyl-urea], for which the “phenylephrine (PE) induced contraction of the cavernosual strips” value in experiment [3] is on record as “attenuated”.

Consider `O=C(Nc1ccc(OC(F)(F)F)cc1)NC1CCN(C(=O)c2cccnc2)CC1` [Compound 2, 1-(1-nicotinoylpiperidin-4-yl)-3-(4-(trifluoromethoxy)phenyl)urea], for which the “response to Ach-induced relaxation after in vivo co-administration” value with rat arteries [4] (10 mg once a day by oral gavage for 2 weeks) is “significantly improved dose dependent response to Ach”. Also, the “relaxation of pre-contracted mesenteric arteries” value with rat mesenteric arteries [1] (2-1000 μM, pre-contracted by 0.1-1.0 μM U46619 or 127 mM KCl, consistent between both) is “dose dependent effect”. The “percent relaxation of mesenteric arteries” value with rat mesenteric arteries [5] (10 μM of compound) is 5%; with rat mesenteric arteries [5] (100 μM of compound), 60%. In addition, in the experiment on rat arteries [6], the “percent relaxation with 100 nM Ach” value was determined as 30%.

`CC(=O)N1CCC(NC(=O)NC23CC4CC(CC(C4)C2)C3)CC1` [Compound 3, 1-adamantyl-3-(1-acetylpiperidin-4-yl)urea]: the “response to Ach-induced relaxation after in vivo co-administration” value in the experiment with rat arteries [4] (30 mg per day dose in drinking water for 2 weeks) is on record as “significantly improved dose dependent response to Ach”. The “percent relaxation induced by 10 μM Ach” value with arteries from SHR (vehicle 65%) is on record as 90%. The “percent relaxation induced by 100 nM SNP” value with arteries from SHR (vehicle 70%) is on record as 95%. For the same compound, in the experiment with rat arteries [6], the “percent relaxation with 100 nM Ach” value is reported as 70%.
